Our source for the IC50 and GI50 values is patent publication US20250101023A1, “HETEROARYL DERIVATIVE AND USES THEREOF” (IUCF-HYU (INDUSTRY-UNIVERSITY COOPERATION FOUNDATION …, priority 2022, published 2025).

For assay [1], the target named is CDK12/CyclinK (Homo sapiens (Human), UniProt Q9NYV4). Description: CDK12/cyclinK enzyme activity. The note with it: in vitro. Format: biochemical.
Assay [2] concerns SK-Br3 cells. Description: Breast cancer growth inhibitory activity (Cell-titer Glo, 72 h). Format: cell-based. The note with it: Homo sapiens, SK-BR-3. Here is the method:
(§1) Breast cancer cells in a culture solution (100 μL volume/well, 2,500 SK-Br3 cells/well, 1,000 HCC-1954 cells/well) were seeded into a tissue culture-treated 96-well plate and cultured in a cell incubator for 24 hours. […] Cell-titer Glo™ reagent (50 μL of a 5-fold diluted solution, Promega) was added to each well, and luminescence signals were measured using an Envision™ plate reader (PerkinElmer, USA). Titration curve fitting and IC50 values were generated using Prism 7.0 s/w (GraphPad, San Diego, USA).

Assay [3] relates to HCC1954 cells. The description is as above. Format: cell-based. The note with it: Homo sapiens. Here is the method:
as §1

[4] abbreviates: 72 hours, read-out: SK-Br3 (GI50/μM).
The mark [5] stands for this setting: 72 hours, read-out: HCC1954 (GI50/μM).

Like-named read-outs stand apart in the source and are kept apart here. Some results are limits rather than exact numbers.

Chain of CDK12/CyclinK (Q9NYV4 whole entry): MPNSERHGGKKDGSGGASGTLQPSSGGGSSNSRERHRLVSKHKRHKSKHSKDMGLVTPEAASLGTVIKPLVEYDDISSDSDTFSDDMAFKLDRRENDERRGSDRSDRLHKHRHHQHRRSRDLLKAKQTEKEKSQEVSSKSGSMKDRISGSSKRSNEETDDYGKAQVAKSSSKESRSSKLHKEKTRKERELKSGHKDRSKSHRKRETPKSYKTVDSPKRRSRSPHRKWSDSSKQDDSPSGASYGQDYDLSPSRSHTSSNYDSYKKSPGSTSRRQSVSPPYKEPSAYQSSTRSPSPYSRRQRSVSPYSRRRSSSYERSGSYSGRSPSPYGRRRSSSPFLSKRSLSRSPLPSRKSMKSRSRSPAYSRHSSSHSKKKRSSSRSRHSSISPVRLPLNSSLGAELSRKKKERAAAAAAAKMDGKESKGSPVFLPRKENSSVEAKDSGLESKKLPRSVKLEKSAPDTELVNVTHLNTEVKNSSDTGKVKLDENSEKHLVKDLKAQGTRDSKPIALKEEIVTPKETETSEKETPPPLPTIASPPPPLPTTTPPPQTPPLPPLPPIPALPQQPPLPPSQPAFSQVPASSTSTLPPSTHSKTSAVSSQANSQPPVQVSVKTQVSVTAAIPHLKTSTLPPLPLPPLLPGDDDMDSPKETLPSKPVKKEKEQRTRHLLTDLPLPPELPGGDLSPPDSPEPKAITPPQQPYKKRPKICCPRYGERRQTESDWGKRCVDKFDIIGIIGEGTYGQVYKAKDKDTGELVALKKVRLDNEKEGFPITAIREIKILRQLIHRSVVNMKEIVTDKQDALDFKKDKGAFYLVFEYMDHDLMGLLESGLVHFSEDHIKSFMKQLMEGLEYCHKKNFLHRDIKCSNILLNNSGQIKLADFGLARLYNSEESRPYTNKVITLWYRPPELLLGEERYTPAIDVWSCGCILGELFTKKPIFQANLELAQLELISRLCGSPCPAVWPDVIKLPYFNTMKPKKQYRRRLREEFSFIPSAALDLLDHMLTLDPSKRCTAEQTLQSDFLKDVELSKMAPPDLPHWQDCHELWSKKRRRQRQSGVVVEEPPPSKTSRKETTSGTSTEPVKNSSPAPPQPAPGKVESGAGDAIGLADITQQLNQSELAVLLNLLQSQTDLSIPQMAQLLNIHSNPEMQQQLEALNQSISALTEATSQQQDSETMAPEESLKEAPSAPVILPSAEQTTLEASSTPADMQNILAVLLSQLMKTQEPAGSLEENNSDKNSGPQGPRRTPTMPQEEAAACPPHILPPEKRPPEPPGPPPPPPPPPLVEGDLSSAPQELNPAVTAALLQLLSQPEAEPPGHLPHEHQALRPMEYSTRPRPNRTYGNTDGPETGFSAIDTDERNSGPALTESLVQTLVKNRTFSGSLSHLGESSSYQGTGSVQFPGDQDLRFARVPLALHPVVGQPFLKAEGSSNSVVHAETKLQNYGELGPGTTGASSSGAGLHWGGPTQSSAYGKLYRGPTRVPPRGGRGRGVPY
Chain of CDK12/CyclinK (O75909 whole entry partner): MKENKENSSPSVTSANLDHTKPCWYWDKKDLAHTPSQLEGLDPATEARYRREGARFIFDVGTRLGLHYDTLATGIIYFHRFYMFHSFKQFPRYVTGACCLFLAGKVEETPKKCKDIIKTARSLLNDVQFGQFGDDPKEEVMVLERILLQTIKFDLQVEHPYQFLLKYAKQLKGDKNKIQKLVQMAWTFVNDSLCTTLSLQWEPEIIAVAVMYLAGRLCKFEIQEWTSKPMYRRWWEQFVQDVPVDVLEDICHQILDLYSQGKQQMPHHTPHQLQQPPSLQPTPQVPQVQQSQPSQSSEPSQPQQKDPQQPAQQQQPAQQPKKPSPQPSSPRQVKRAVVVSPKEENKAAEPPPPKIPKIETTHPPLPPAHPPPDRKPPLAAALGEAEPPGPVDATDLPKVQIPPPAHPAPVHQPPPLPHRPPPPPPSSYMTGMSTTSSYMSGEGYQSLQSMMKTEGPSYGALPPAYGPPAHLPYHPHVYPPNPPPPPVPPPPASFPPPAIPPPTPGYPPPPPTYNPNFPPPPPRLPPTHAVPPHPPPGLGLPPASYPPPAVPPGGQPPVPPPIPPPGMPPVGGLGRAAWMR

A word on the IC50: it is the concentration needed to halve the response being measured. Lower therefore signals inhibition by little substance. Take `CC(C)n1cnc2c(NCc3ccc(-c4cccnc4)nc3)nc(-c3ccnc(F)c3)nc21` [Example 29, N-([2,3′-bipyridin]-5-ylmethyl)-2-(2-fluoropyridin-4-yl)-9-isopropyl-9H-purin-6-amine]: the IC50 in assay [1] worked out at 0.164 µM. Moreover, in assay [2] (setting [4]), the GI50 is 1.72 µM.

On to `c1cncc(-c2ccc(CNc3nc(-c4cccnc4)nc4c3ncn4C3CCCC3)cn2)c1` [Example 47, N-([2,3′-bipyridin]-5-ylmethyl)-9-cyclopentyl-2-(pyridin-3-yl)-9H-purin-6-amine], for which the half-maximal inhibitory concentration (IC50) in assay [1] was found to be 0.293 µM. Besides, the GI50 in assay [3] (setting [5]) came to 2.14 µM; in assay [2] (setting [4]) it was 2.6 µM.

Consider `Cc1ccc(-c2ccc(CNc3nc(-c4cccnc4)nc4c3ncn4C(C)C)nc2)cn1` [Example 3, 9-isopropyl-N-((6′-methyl-[3,3′-bipyridin]-6-yl)methyl)-2-(pyridin-3-yl)-9H-purin-6-amine], for which 1.11 µM corresponded to half-maximal inhibition in assay [1] (IC50). Further, the GI50 in assay [3] (setting [5]) worked out at 13.6 µM; in assay [2] (setting [4]), 23.1 µM.

`c1cncc(-c2ccc(CNc3nc(-c4cccnc4)nc4c3ncn4C3CCOCC3)cn2)c1` [Example 48, N-([2,3′-bipyridin]-5-ylmethyl)-2-(pyridin-3-yl)-9-(tetrahydro-2H-pyran-4-yl)-9H-purin-6-amine] gave a concentration for half-maximal inhibition (IC50) in assay [1] greater than 10 µM. In addition, the GI50 in assay [3] (setting [5]) worked out at 44.2 µM.

Take `CC(C)n1cnc2c(NCc3ccc(-c4cccnc4)nc3)nc(-c3cccc(N)c3)nc21` [Example 26, N-([2,3′-bipyridin]-5-ylmethyl)-2-(3-aminophenyl)-9-isopropyl-9H-purin-6-amine]: the IC50 in assay [1] is 0.17 µM. Further, the GI50 in assay [3] (setting [5]) stood at 0.34 µM; in assay [2] (setting [4]), 0.615 µM.

Consider `CC(C)n1cnc2c(NCc3ccc(-c4cccnc4)nc3)nc(-c3cncnc3)nc21` [Example 20, N-([2,3′-bipyridin]-5-ylmethyl)-9-isopropyl-2-(pyrimidin-5-yl)-9H-purin-6-amine], for which, in assay [1], the IC50 was found to be 0.051 µM. Also, the values for the GI50 in assay [3] (setting [5]) and in assay [2] (setting [4]) were 0.308 µM and 0.314 µM, respectively.

Turning to `CN(C)C/C=C/C(=O)Nc1ccc(C(=O)N2CCC[C@@H](Nc3ncc(Cl)c(-c4c[nH]c5ccccc45)n3)C2)cc1` [THZ531, reference compound], half-maximal inhibition in assay [1] (IC50) required 0.05 µM. The GI50 was found to be 0.214 µM in assay [3] (setting [5]), 0.214 µM in assay [3] (read-out: HCC1954 GI50) and 0.03 µM in assay [2] (read-out: SK-Br3 GI50).

Turning to `CC(C)n1cnc2c(NCc3ccc(-c4cccnc4)nc3)nc(-n3cc(CCO)nn3)nc21` [Example 42, 2-(1-(6-(([2,3′-bipyridin]-5-ylmethyl)amino)-9-isopropyl-9H-purin-2-yl)-1H-1,2,3-triazol-4-yl)ethan-1-ol], in assay [1], the half-maximal inhibitory concentration (IC50) stood at 0.539 µM. The GI50 in assay [3] (setting [5]) was found to be 6.5 µM; in assay [2] (setting [4]), 8.29 µM.

`COc1cncc(-c2nc(NCc3ccc(-c4ccccn4)cn3)c3ncn(C(C)C)c3n2)c1` [Example 44, N-([2,3′-bipyridin]-6′-ylmethyl)-9-isopropyl-2-(5-methoxypyridin-3-yl)-9H-purin-6-amine] yielded an IC50 in assay [1] of 1.53 µM.

On to `CC(C)n1cnc2c(NCc3ccc(-c4cccnc4)nc3)nc(-c3cn[nH]c3)nc21` [Example 23, N-([2,3′-bipyridin]-5-ylmethyl)-9-isopropyl-2-(1H-pyrazol-4-yl)-9H-purin-6-amine], for which, in assay [1], the 50% inhibitory concentration (IC50) came out at 1.43 µM. In assay [2] (setting [4]), the GI50 was found to be 1.99 µM.

In assay [1], `CC(C)n1cnc2c(NCc3ccc(-c4cccnc4)nc3)nc(-c3cccc(NCCCO)c3)nc21` [Example 33, 3-((3-(6-(([2,3′-bipyridin]-5-ylmethyl)amino)-9-isopropyl-9H-purin-2-yl)phenyl)amino)propan-1-ol] showed an IC50 of 0.257 µM. Also, the GI50 in assay [2] (setting [4]) stood at 0.724 µM.

For `CCn1cnc2c(NCc3ccc(-n4nc(C)cc4C)nc3)nc(-c3cnc(N)nc3)nc21` [Example 62, 2-(2-aminopyrimidin-5-yl)-N-((6-(3,5-dimethyl-1H-pyrazol-1-yl)pyridin-3-yl)methyl)-9-ethyl-9H-purin-6-amine], the GI50 in assay [3] (setting [5]) was found to be 0.085 µM; in assay [2] (setting [4]), 0.066 µM.

Turning to `CC(C)n1cnc2c(NCc3ccc(-c4cccnc4)nc3)nc(-c3cnc(N)nc3)nc21` [Example 21, N-([2,3′-bipyridin]-5-ylmethyl)-2-(2-aminopyrimidin-5-yl)-9-isopropyl-9H-purin-6-amine], the IC50 in assay [1] came to 0.087 µM.

`CC(C)n1cnc2c(NCc3ccc(-c4cccnc4)nc3)nc(-c3ccccc3NCCO)nc21` [Example 31, 2-((2-(6-(([2,3′-bipyridin]-5-ylmethyl)amino)-9-isopropyl-9H-purin-2-yl)phenyl)amino)ethan-1-ol] displayed an IC50 in assay [1] of 0.799 µM. The GI50 in assay [3] (setting [5]) was 1.56 µM; in assay [2] (setting [4]), 2.31 µM.

For the compound `CC(C)n1cnc2c(NCc3ccc(-c4cccnc4)nc3)nc(-c3ccnc(NCCCO)c3)nc21` [Example 38, 3-((4-(6-(([2,3′-bipyridin]-5-ylmethyl)amino)-9-isopropyl-9H-purin-2-yl)pyridin-2-yl)amino)propan-1-ol], inhibition in assay [1] was half-maximal at 0.113 µM (IC50). The GI50 in assay [2] (setting [4]) amounted to 0.479 µM.

`CC(C)n1cnc2c(NCc3ccc(-c4cccnc4)nc3)nc(-c3ccc4[nH]ncc4c3)nc21` [Example 14, N-([2,3′-bipyridin]-5-ylmethyl)-2-(1H-indazol-5-yl)-9-isopropyl-9H-purin-6-amine]: in assay [1], the IC50 came out at 0.104 µM. For the same compound, the GI50 turned out to be 1.88 µM in assay [3] (setting [5]) and 2.6 µM in assay [2] (setting [4]).

In assay [1], `CC(C)n1cnc2c(NCc3ccc(-c4cccnc4)nc3)nc(-n3cc(CO)nn3)nc21` [Example 41, (1-(6-(([2,3′-bipyridin]-5-ylmethyl)amino)-9-isopropyl-9H-purin-2-yl)-1H-1,2,3-triazol-4-yl)methanol] displayed an IC50 of 2.05 µM. In addition, the GI50 was 10 µM in assay [3] (setting [5]) and 13.3 µM in assay [2] (setting [4]).

With `CC(C)n1cnc2c(NCc3ccc(-c4cccnc4)nc3)nc(-c3ccnc(N)c3)nc21` [Example 19, N-([2,3′-bipyridin]-5-ylmethyl)-2-(2-aminopyridin-4-yl)-9-isopropyl-9H-purin-6-amine], the IC50 in assay [1] is 0.094 µM. Moreover, in assay [3] (setting [5]), the GI50 worked out at 0.362 µM.

With `CCn1cnc2c(NCc3ccc(-c4cccnc4)nc3)nc(-c3cccnc3)nc21` [Example 46, N-([2,3′-bipyridin]-5-ylmethyl)-9-ethyl-2-(pyridin-3-yl)-9H-purin-6-amine], the half-maximal inhibitory concentration (IC50) in assay [1] was 0.016 µM. For the same compound, the GI50 in assay [2] (setting [4]) worked out at 0.217 µM.

Regarding `CC(C)n1cnc2c(NCc3ccc(-c4cccnc4)nc3)nc(-c3cnc4ccccc4c3)nc21` [Example 16, N-([2,3′-bipyridin]-5-ylmethyl)-9-isopropyl-2-(quinolin-3-yl)-9H-purin-6-amine], the midpoint of inhibition in assay [1], the IC50, lay at 0.486 µM. Moreover, the GI50 in assay [3] (setting [5]) came out at 4.23 µM; in assay [2] (setting [4]), 3.71 µM.

For `CC(C)n1cnc2c(NCc3ccc(-c4cccnc4)nc3)nc(-c3ccc(NCCCO)nc3)nc21` [Example 36, 3-((5-(6-(([2,3′-bipyridin]-5-ylmethyl)amino)-9-isopropyl-9H-purin-2-yl)pyridin-2-yl)amino)propan-1-ol], half-maximal inhibition in assay [1] (IC50) was put at 0.304 µM. Besides, the GI50 in assay [2] (setting [4]) amounted to 1.18 µM.

For the compound `CC(C)n1cnc2c(NCc3ccc(-c4cccnc4)nc3)nc(-c3ccc(N)cc3)nc21` [Example 27, N-([2,3′-bipyridin]-5-ylmethyl)-2-(4-aminophenyl)-9-isopropyl-9H-purin-6-amine], the half-maximal inhibitory concentration (IC50) in assay [1] worked out at 0.15 µM. The GI50 in assay [2] (setting [4]) worked out at 0.813 µM.

In assay [1], `Cc1ccc(-c2nc(NCc3ccc(-c4cccnc4)nc3)c3ncn(C(C)C)c3n2)cn1` [Example 17, N-([2,3′-bipyridin]-5-ylmethyl)-9-isopropyl-2-(6-methylpyridin-3-yl)-9H-purin-6-amine] gave an IC50 of 0.09 µM. Further, the GI50 in assay [3] (setting [5]) came out at 0.937 µM; in assay [2] (setting [4]), 1.25 µM.

Compound `CC(C)n1cnc2c(NCc3ccc(-c4cccnc4)nc3)nc(-c3ccccc3)nc21` [Example 8, N-([2,3′-bipyridin]-5-ylmethyl)-9-isopropyl-2-phenyl-9H-purin-6-amine] registered an IC50 in assay [1] of 0.623 µM. In addition, the results for the GI50 in assay [3] (setting [5]) and in assay [2] (setting [4]) were 1.12 µM and 1.68 µM, respectively.

For `CC(C)n1cnc2c(NCc3ccc(-c4cccnc4)nc3)nc(-c3ccnc(NCCO)c3)nc21` [Example 37, 2-((4-(6-(([2,3′-bipyridin]-5-ylmethyl)amino)-9-isopropyl-9H-purin-2-yl)pyridin-2-yl)amino)ethan-1-ol], the IC50 in assay [1] worked out at 0.086 µM. Besides, the GI50 in assay [2] (setting [4]) is 0.47 µM.

On to `CCn1cnc2c(NCc3ccc(-c4ccnc(C)c4)nc3)nc(-c3ccc4[nH]c(=O)[nH]c4c3)nc21` [Example 52, 5-(9-ethyl-6-(((2′-methyl-[2,4′-bipyridin]-5-yl)methyl)amino)-9H-purin-2-yl)-1,3-dihydro-2H-benzo[d]imidazol-2-one], for which, in assay [3] (setting [5]), the GI50 is 0.635 µM.

In assay [1], `CC(C)n1cnc2c(NCc3ccc(-c4cccnc4)nc3)nc(-c3ccn[nH]3)nc21` [Example 22, N-([2,3′-bipyridin]-5-ylmethyl)-9-isopropyl-2-(1H-pyrazol-5-yl)-9H-purin-6-amine] yielded an IC50 of 0.501 µM. Further, the GI50 in assay [2] (setting [4]) came out at 1.72 µM.

Compound `CC(C)n1cnc2c(NCc3ccc(-c4ccccn4)cn3)nc(-c3ccc(N)nc3)nc21` [Example 45, N-([2,3′-bipyridin]-6′-ylmethyl)-2-(6-aminopyridin-3-yl)-9-isopropyl-9H-purin-6-amine] registered a 50% inhibitory concentration (IC50) in assay [1] of 0.221 µM. Further, the GI50 in assay [2] (setting [4]) is 0.169 µM.

Turning to `CC(C)n1cnc2c(NCc3ccc(-c4cccnc4)nc3)nc(N3CCOC[C@H]3CCO)nc21` [Example 63, (R)-2-(4-(6-(([2,3′-bipyridin]-5-ylmethyl)amino)-9-isopropyl-9H-purin-2-yl)morpholin-3-yl)ethan-1-ol], the GI50 in assay [3] (setting [5]) was found to be 0.168 µM.
